Experimental data reported in patent publication EP4241766A1, “USE OF OLFACTORY RECEPTOR OR13A1 LIGANDS IN THE TREATMENT OF LYMPHOMAS” (Fondazione Per L'Istituto Oncologico Di Ricerca (IOR), priority 2022, dated 2023).

Experiments:
U2932 DLBCL cell line = assay: Growth/viability of U2932 cells with doxycycline-inducible shRNA system targeting OR13A1; type: cell-based
Excerpt: • Figure 1. Expression of OR13A1 across lymphoma cell lines as measured by RNA-Seq. A) Heatmap is based on log2 CPM (counts per million). Scale ranges from low (white) to high expression (black). Each horizontal represents the value for one cell line. GCB DLBCL, diffuse large B-cell lymphoma of the germinal center B-cell-type; ABC DLBCL, diffuse large B-cell lymphoma of the activated B-cell-like; MCL, mantle cell lymphoma; MZL, marginal zone lymphoma; CLL, chronic lymphocytic leukemia; PMBCL, primary mediastinal large B-cell lymphoma; BL, Burkitt lymphoma. B) OR13A1 expression level by cell of origin in DLBCL cell lines, the expression was higher in cells derived from germinal center (GC) B-cell type (GCB) than activated B cell like (ABC) DLBCL (P value = 0.03). • Figure 2. OR13A1 silencing is associated with reduction in cell viability of DLBCL cells. Left panel, real-time PCR showing reduction of OR13A1 72h after siRNA treatment. Right panel, Reduction of cell viability, measured with MTT, in DLBCL cells after gene silencing. • Figure 3. Homology model of OR13A1 with two ligands. A) cyclohexanone docked onto the orthosteric binding site. B) tyramine docked onto the orthosteric binding site. Residues identified in the model to interact with the tyramine, potentially relevant for the receptor activation, are shown in sticks, D221 and T297. • Figure 4. […] Experiments were done using U2932 cells with the doxycycline-inducible shRNA system, exposed or not to cyclohexanone (25µM). The red arrow indicates the addition of cyclohexanone. CH, cyclohexanone; sh1, doxycycline-inducible shRNA targeting OR13A1; shCNT, scramble doxycycline-inducible shRNA.
Cellular experiments followed with cyclohexanone and, among the predicted ligands, tyramine using the U2932 DLBCL cell line with the doxycycline-inducible shRNA system.

Olfr211 = target: T1, Olfr211 (Mus musculus, UniProt Q8VGH2); conditions: experimentally demonstrated, reference [52]; cited from earlier work
T1 sequence (Q8VGH2 1-309): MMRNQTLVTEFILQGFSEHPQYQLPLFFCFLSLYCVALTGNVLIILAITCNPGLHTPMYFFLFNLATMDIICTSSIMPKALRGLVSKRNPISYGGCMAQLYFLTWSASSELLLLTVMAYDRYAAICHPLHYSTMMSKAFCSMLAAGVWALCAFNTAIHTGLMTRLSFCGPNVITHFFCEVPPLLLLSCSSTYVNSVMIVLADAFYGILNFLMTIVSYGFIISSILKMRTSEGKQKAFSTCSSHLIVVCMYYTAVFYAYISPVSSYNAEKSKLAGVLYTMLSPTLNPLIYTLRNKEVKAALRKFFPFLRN

Olfr1484 = conditions: experimentally demonstrated, reference [52]; cited from earlier work

In the case of `O=C1CCCCC1` [cyclohexanone], the lymphoma cell viability (U2932 DLBCL cell line; U2932, in the presence of the GPCR (OR13A1), Figure 4) is reported as “decreased the lymphoma cell viability in the presence”, the “effect on growth of DLBCL cells” value (U2932 DLBCL cell line; U2932 cells, cyclohexanone 25µM, absence of OR13A1 (sh1), Figure 4) is reported as “The absence of OR13A1 abrogates the effect” and the “growth of DLBCL cells” value (U2932 DLBCL cell line; U2932 cells, cyclohexanone 25µM, Figure 4) is reported as “reduces the growth of DLBCL cells”. The “ligand of Olfr211” value (Olfr211) was “ligand” and the “ligand of Olfr1484” value (Olfr1484) was “ligand”.
For `NCCc1ccc(O)cc1` [tyramine], the “lymphoma cell line growth” value (U2932 DLBCL cell line; U2932 DLBCL cell line, doxycycline-inducible shRNA system) was “increased lymphoma cell line growth”.
